In patent publication US6620828B2, “Thiazole compounds and pharmaceutical compositions for inhibiting protein kinases and methods for their use” (Agouron Pharmaceuticals, Inc., priority 1999, dated 2003):

Each compound was assayed on human umbilical vein endothelial cells (HUVEC) (assay: HUVEC proliferation assay). Conditions: Homo sapiens, HUVEC, Inhibition of HUVEC Proliferation; 50 nM; crude combinatorial urea library; read-out: % inhibition @ 50 nM.
Type: cell-based
Procedure: HUVEC Proliferation Assay
This assay determines the ability of a test compound to inhibit the growth factor-stimulated proliferation of human umbilical vein endothelial cells (“HUVEC”). HUVEC cells (passage 3-4, Clonetics, Corp.) were thawed into EGM2 culture medium (Clonetics Corp) in T75 flasks. Fresh EGM2 medium was added to the flasks 24 hours later. Four or five days later, cells were exposed to another culture medium (F12K medium supplemented with 10% fetal bovine serum (FBS), 60 μg/ml endothelial cell growth supplement (ECGS), and 0.1 mg/ml heparin). Exponentially-growing HUVEC cells were used in experiments thereafter. Ten to twelve thousand HUVEC cells were plated in 96-well dishes in 100 μl of rich, culture medium (described above). The cells were allowed to attach for 24 hours in this medium. The medium was then removed by aspiration and 105 μl of starvation media (F12K+1% FBS) was added to each well. After 24 hours, 15 μl of test agent dissolved in 1% DMSO in starvation medium or this vehicle alone was added into each treatment well; the final DMSO concentration was 0.1%. One hour later, 30 μl of VEGF (30 ng/ml) in starvation media was added to all wells except those containing untreated controls; the final VEGF concentration was 6 ng/ml. Cellular proliferation was quantified 72 hours later by MTT dye reduction, at which time cells were exposed for 4 hours MTT (Promega Corp.). Dye reduction was stopped by addition of a stop solution (Promega Corp.) and absorbance at 595 λ was determined on a 96-well spectrophotometer plate reader.
IC50 values were calculated by curve-fitting the response of A^595 to various concentrations of the test agent; typically, seven concentrations separated by 0.5 log were employed, with triplicate wells at each concentration. For screening compound library plates, one or two concentrations (one well per concentration) were employed, and the % inhibition was calculated by the following formula:
% inhibition=(control−test) divided by (control−starvation) […]
control=A^595 when VEGF is present without test agent test=A^595 when VEGF is present with test agent starvation=A^595 when VEGF and test agent are both absent.
`COc1cccc(C(=O)Nc2cc(-c3csc(-c4sc(NC(=O)NCCNc5ccccc5)nc4N)n3)c(F)cc2F)c1` showed an inhibition at 0.05 µM of 60%. Compound `COc1cccc(C(=O)Nc2cc(-c3csc(-c4sc(NC(=O)NCC(C)O)nc4N)n3)c(F)cc2F)c1` (stereo not drawn) has an inhibition at 0.05 µM of 111%. For `COc1cccc(C(=O)Nc2cc(-c3csc(-c4sc(NC(=O)NCC5CCC=CO5)nc4N)n3)c(F)cc2F)c1` (stereo not drawn), the inhibition at 0.05 µM was 42%. `COc1cccc(C(=O)Nc2cc(-c3csc(-c4sc(NC(=O)NC5CC(C)(C)NC(C)(C)C5)nc4N)n3)c(F)cc2F)c1` was tested, and the inhibition at 0.05 µM was 89%. With `COc1cccc(C(=O)Nc2cc(-c3csc(-c4sc(NC(=O)NCCc5ccc(N)cc5)nc4N)n3)c(F)cc2F)c1` the inhibition at 0.05 µM was 65%. `COc1cccc(C(=O)Nc2cc(-c3csc(-c4sc(NC(=O)NCCCN5CCOCC5)nc4N)n3)c(F)cc2F)c1` was tested, and the inhibition at 0.05 µM was 81%. Work on `COc1cccc(C(=O)Nc2cc(-c3csc(-c4sc(NC(=O)NCCC(C)C)nc4N)n3)c(F)cc2F)c1` yielded an inhibition at 0.05 µM of 55%. `COc1cccc(C(=O)Nc2cc(-c3csc(-c4sc(NC(=O)NCC5CCCO5)nc4N)n3)c(F)cc2F)c1` (stereo not drawn) gave an inhibition at 0.05 µM of 92%. Compound `COc1cccc(C(=O)Nc2cc(-c3csc(-c4sc(NC(=O)NCCC5CCCN5C)nc4N)n3)c(F)cc2F)c1` (stereo not drawn) has an inhibition at 0.05 µM of 27%. For `COc1cccc(C(=O)Nc2cc(-c3csc(-c4sc(NC(=O)NCCN5CCCCC5)nc4N)n3)c(F)cc2F)c1`, the inhibition at 0.05 µM was 74%. `COc1cccc(C(=O)Nc2cc(-c3csc(-c4sc(NC(=O)NCCCN5CCCCC5C)nc4N)n3)c(F)cc2F)c1` (stereo not drawn) showed an inhibition at 0.05 µM of 86%. `COc1cccc(C(=O)Nc2cc(-c3csc(-c4sc(NC(=O)NC5CCN(Cc6ccccc6)CC5)nc4N)n3)c(F)cc2F)c1` showed an inhibition at 0.05 µM of 66%. With `COc1cccc(C(=O)Nc2cc(-c3csc(-c4sc(NC(=O)NCC(C)(C)CN(C)C)nc4N)n3)c(F)cc2F)c1` the inhibition at 0.05 µM was 75%. Work on `COc1cccc(C(=O)Nc2cc(-c3csc(-c4sc(NC(=O)N[C@H]5CC[C@H](O)CC5)nc4N)n3)c(F)cc2F)c1` yielded an inhibition at 0.05 µM of 81%. `COc1cccc(C(=O)Nc2cc(-c3csc(-c4sc(NC(=O)NCCC(=O)O)nc4N)n3)c(F)cc2F)c1` gave an inhibition at 0.05 µM of 66%. `COCCNC(=O)Nc1nc(N)c(-c2nc(-c3cc(NC(=O)c4cccc(OC)c4)c(F)cc3F)cs2)s1` showed an inhibition at 0.05 µM of 21%. With `COc1cccc(C(=O)Nc2cc(-c3csc(-c4sc(NC(=O)NCC(F)(F)F)nc4N)n3)c(F)cc2F)c1` the inhibition at 0.05 µM was 2%. For `COc1cccc(C(=O)Nc2cc(-c3csc(-c4sc(NC(=O)NCCCn5ccnc5)nc4N)n3)c(F)cc2F)c1`, the inhibition at 0.05 µM was 6%. `COc1cccc(C(=O)Nc2cc(-c3csc(-c4sc(NC(=O)NCCc5ccc(S(N)(=O)=O)cc5)nc4N)n3)c(F)cc2F)c1` was tested, and the inhibition at 0.05 µM was 25%. `CCCCN(CC)CCNC(=O)Nc1nc(N)c(-c2nc(-c3cc(NC(=O)c4cccc(OC)c4)c(F)cc3F)cs2)s1` was tested, and the inhibition at 0.05 µM was 24%. `COc1cccc(C(=O)Nc2cc(-c3csc(-c4sc(NC(=O)NCc5ccc(N(C)C)cc5)nc4N)n3)c(F)cc2F)c1` was tested, and the inhibition at 0.05 µM was 39%. `COc1cccc(C(=O)Nc2cc(-c3csc(-c4sc(NC(=O)NCP(=O)(O)O)nc4N)n3)c(F)cc2F)c1` gave an inhibition at 0.05 µM of 48%. Compound `COc1cccc(C(=O)Nc2cc(-c3csc(-c4sc(NC(=O)NC(CO)CO)nc4N)n3)c(F)cc2F)c1` has an inhibition at 0.05 µM of 76%. `COc1cccc(C(=O)Nc2cc(-c3csc(-c4sc(NC(=O)NCc5ccc(N)cc5)nc4N)n3)c(F)cc2F)c1` showed an inhibition at 0.05 µM of 83%. In the case of `COc1cccc(C(=O)Nc2cc(-c3csc(-c4sc(NC(=O)N[C@@H](CO)C(N)=O)nc4N)n3)c(F)cc2F)c1`, the inhibition at 0.05 µM is reported as 69%. `CNC(=O)Nc1nc(N)c(-c2nc(-c3cc(NC(=O)c4cccc(OC)c4)c(F)cc3F)cs2)s1` showed an inhibition at 0.05 µM of 99%. With `COc1cccc(C(=O)Nc2cc(-c3csc(-c4sc(NC(=O)NCCNC(C)=O)nc4N)n3)c(F)cc2F)c1` the inhibition at 0.05 µM was 105%. For `COc1cccc(C(=O)Nc2cc(-c3csc(-c4sc(NC(=O)N[C@H](CO)Cc5c[nH]cn5)nc4N)n3)c(F)cc2F)c1`, the inhibition at 0.05 µM was 47%. `CCC(CO)NC(=O)Nc1nc(N)c(-c2nc(-c3cc(NC(=O)c4cccc(OC)c4)c(F)cc3F)cs2)s1` (stereo not drawn) showed an inhibition at 0.05 µM of 108%. `COc1cccc(C(=O)Nc2cc(-c3csc(-c4sc(NC(=O)NCCCC(=O)O)nc4N)n3)c(F)cc2F)c1` showed an inhibition at 0.05 µM of 40%. In the case of `COc1cccc(C(=O)Nc2cc(-c3csc(-c4sc(NC(=O)NCCN5CCNCC5)nc4N)n3)c(F)cc2F)c1`, the inhibition at 0.05 µM is reported as 46%. For `COc1cccc(C(=O)Nc2cc(-c3csc(-c4sc(NC(=O)NCCc5ccccn5)nc4N)n3)c(F)cc2F)c1`, the inhibition at 0.05 µM was 105%. Work on `COc1cccc(C(=O)Nc2cc(-c3csc(-c4sc(NC(=O)NCc5cccnc5)nc4N)n3)c(F)cc2F)c1` yielded an inhibition at 0.05 µM of 102%. In the case of `COc1cccc(C(=O)Nc2cc(-c3csc(-c4sc(NC(=O)NCc5ccncc5)nc4N)n3)c(F)cc2F)c1`, the inhibition at 0.05 µM is reported as 95%. With `COc1cccc(C(=O)Nc2cc(-c3csc(-c4sc(NC(=O)NCC(O)CO)nc4N)n3)c(F)cc2F)c1` (stereo not drawn) the inhibition at 0.05 µM was 74%. `COc1cccc(C(=O)Nc2cc(-c3csc(-c4sc(NC(=O)NC(C)CO)nc4N)n3)c(F)cc2F)c1` (stereo not drawn) was tested, and the inhibition at 0.05 µM was 98%. For `COc1cccc(C(=O)Nc2cc(-c3csc(-c4sc(NC(=O)NCCCN5CCN(C)CC5)nc4N)n3)c(F)cc2F)c1`, the inhibition at 0.05 µM was 95%. In the case of `COc1cccc(C(=O)Nc2cc(-c3csc(-c4sc(NC(=O)NCCN5CCNC5=O)nc4N)n3)c(F)cc2F)c1`, the inhibition at 0.05 µM is reported as 78%. `COc1cccc(C(=O)Nc2cc(-c3csc(-c4sc(NC(=O)NCCC(N)=O)nc4N)n3)c(F)cc2F)c1` showed an inhibition at 0.05 µM of 48%. In the case of `CCN(CC)CCCC(C)NC(=O)Nc1nc(N)c(-c2nc(-c3cc(NC(=O)c4cccc(OC)c4)c(F)cc3F)cs2)s1` (stereo not drawn), the inhibition at 0.05 µM is reported as 84%. For `COc1cccc(C(=O)Nc2cc(-c3csc(-c4sc(NC(=O)NCCCCN(C)C)nc4N)n3)c(F)cc2F)c1`, the inhibition at 0.05 µM was 30%. In the case of `COc1cccc(C(=O)Nc2cc(-c3csc(-c4sc(NC(=O)NCCCCCCN(C)C)nc4N)n3)c(F)cc2F)c1`, the inhibition at 0.05 µM is reported as 83%. `COc1cccc(C(=O)Nc2cc(-c3csc(-c4sc(NC(=O)NCC(C)N(C)C)nc4N)n3)c(F)cc2F)c1` (stereo not drawn) was tested, and the inhibition at 0.05 µM was 22%. `COc1cccc(C(=O)Nc2cc(-c3csc(-c4sc(NC(=O)NCCCN5CCCCCC5)nc4N)n3)c(F)cc2F)c1` showed an inhibition at 0.05 µM of 86%. `COc1cccc(C(=O)Nc2cc(-c3csc(-c4sc(NC(=O)NCCCN5CCCCC5)nc4N)n3)c(F)cc2F)c1` gave an inhibition at 0.05 µM of 89%. In the case of `COc1cccc(C(=O)Nc2cc(-c3csc(-c4sc(NC(=O)NC5CCS(=O)(=O)C5)nc4N)n3)c(F)cc2F)c1` (stereo not drawn), the inhibition at 0.05 µM is reported as 100%. With `COc1cccc(C(=O)Nc2cc(-c3csc(-c4sc(NC(=O)NCCC(=O)NCC(=O)O)nc4N)n3)c(F)cc2F)c1` the inhibition at 0.05 µM was 57%. With `COc1cccc(C(=O)Nc2cc(-c3csc(-c4sc(NC(=O)NCC#N)nc4N)n3)c(F)cc2F)c1` the inhibition at 0.05 µM was 71%. `COc1cccc(C(=O)Nc2cc(-c3csc(-c4sc(NC(=O)NCC(=O)NO)nc4N)n3)c(F)cc2F)c1` was tested, and the inhibition at 0.05 µM was 19%. In the case of `COc1cccc(C(=O)Nc2cc(-c3csc(-c4sc(NC(=O)NCC(=O)O)nc4N)n3)c(F)cc2F)c1`, the inhibition at 0.05 µM is reported as 23%. `COc1cccc(C(=O)Nc2cc(-c3csc(-c4sc(NC(=O)NCCS(=O)(=O)O)nc4N)n3)c(F)cc2F)c1` gave an inhibition at 0.05 µM of 27%. Work on `CCC(O)CNC(=O)Nc1nc(N)c(-c2nc(-c3cc(NC(=O)c4cccc(OC)c4)c(F)cc3F)cs2)s1` (stereo not drawn) yielded an inhibition at 0.05 µM of 104%. Compound `COc1cccc(C(=O)Nc2cc(-c3csc(-c4sc(NC(=O)NCC(C)(C)CO)nc4N)n3)c(F)cc2F)c1` has an inhibition at 0.05 µM of 120%. Work on `CCN1CC(NC(=O)Nc2nc(N)c(-c3nc(-c4cc(NC(=O)c5cccc(OC)c5)c(F)cc4F)cs3)s2)CN1CC` yielded an inhibition at 0.05 µM of 82%. `CCN(CCNC(=O)Nc1nc(N)c(-c2nc(-c3cc(NC(=O)c4cccc(OC)c4)c(F)cc3F)cs2)s1)c1cccc(C)c1` was tested, and the inhibition at 0.05 µM was 18%. `COc1cccc(C(=O)Nc2cc(-c3csc(-c4sc(NC(=O)NCC(=N)N)nc4N)n3)c(F)cc2F)c1` gave an inhibition at 0.05 µM of 17%. Work on `COc1cccc(C(=O)Nc2cc(-c3csc(-c4sc(NC(=O)NCC(C)(C)C)nc4N)n3)c(F)cc2F)c1` yielded an inhibition at 0.05 µM of 43%. `COc1cccc(C(=O)Nc2cc(-c3csc(-c4sc(NC(=O)NCC5(O)CCCCC5)nc4N)n3)c(F)cc2F)c1` was tested, and the inhibition at 0.05 µM was 72%. `COc1cccc(C(=O)Nc2cc(-c3csc(-c4sc(NC(=O)NCCc5c[nH]cn5)nc4N)n3)c(F)cc2F)c1` gave an inhibition at 0.05 µM of 55%. For `COc1cccc(C(=O)Nc2cc(-c3csc(-c4sc(NC(=O)NCS(=O)(=O)O)nc4N)n3)c(F)cc2F)c1`, the inhibition at 0.05 µM was 0%. `COc1cccc(C(=O)Nc2cc(-c3csc(-c4sc(NC(=O)NCCCN(C)c5ccccc5)nc4N)n3)c(F)cc2F)c1` was tested, and the inhibition at 0.05 µM was 45%. With `COc1cccc(C(=O)Nc2cc(-c3csc(-c4sc(NC(=O)NCc5ccc(S(N)(=O)=O)cc5)nc4N)n3)c(F)cc2F)c1` the inhibition at 0.05 µM was 77%. In the case of `COc1cccc(C(=O)Nc2cc(-c3csc(-c4sc(NC(=O)NCCCN(CCO)CCO)nc4N)n3)c(F)cc2F)c1`, the inhibition at 0.05 µM is reported as 51%.
